Measurements reported in patent US9611267B2, “Substituted tricyclic compounds as FGFR inhibitors” (Incyte Corporation, priority 2012, dated 2017).

Legend:
Type in all cases: biochemical
FGFR3 = FGFR3 (Homo sapiens (Human), UniProt P22607); experiment: FGFR enzymatic assay (FRET peptide phosphorylation), FGFR3; conditions: FGFR3 enzyme (Millipore), ATP 140 μM
Summary of the method: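 After 5-10 min pre-incubation of FGFR3 with serially diluted compound in pH 7.5 HEPES/MgCl2/EGTA/DTT buffer, the reaction proceeded 1 hr at 25° C. Phosphorylated peptide was detected by FRET, and IC50 was fitted with a variable-slope sigmoid.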

FGFR2 = FGFR2 (Homo sapiens (Human), UniProt P21802); experiment: FGFR enzymatic assay (FRET peptide phosphorylation), FGFR2; conditions: FGFR2 enzyme 0.01 nM, ATP 100 μM
FGFR2, sequence (P21802 22-821): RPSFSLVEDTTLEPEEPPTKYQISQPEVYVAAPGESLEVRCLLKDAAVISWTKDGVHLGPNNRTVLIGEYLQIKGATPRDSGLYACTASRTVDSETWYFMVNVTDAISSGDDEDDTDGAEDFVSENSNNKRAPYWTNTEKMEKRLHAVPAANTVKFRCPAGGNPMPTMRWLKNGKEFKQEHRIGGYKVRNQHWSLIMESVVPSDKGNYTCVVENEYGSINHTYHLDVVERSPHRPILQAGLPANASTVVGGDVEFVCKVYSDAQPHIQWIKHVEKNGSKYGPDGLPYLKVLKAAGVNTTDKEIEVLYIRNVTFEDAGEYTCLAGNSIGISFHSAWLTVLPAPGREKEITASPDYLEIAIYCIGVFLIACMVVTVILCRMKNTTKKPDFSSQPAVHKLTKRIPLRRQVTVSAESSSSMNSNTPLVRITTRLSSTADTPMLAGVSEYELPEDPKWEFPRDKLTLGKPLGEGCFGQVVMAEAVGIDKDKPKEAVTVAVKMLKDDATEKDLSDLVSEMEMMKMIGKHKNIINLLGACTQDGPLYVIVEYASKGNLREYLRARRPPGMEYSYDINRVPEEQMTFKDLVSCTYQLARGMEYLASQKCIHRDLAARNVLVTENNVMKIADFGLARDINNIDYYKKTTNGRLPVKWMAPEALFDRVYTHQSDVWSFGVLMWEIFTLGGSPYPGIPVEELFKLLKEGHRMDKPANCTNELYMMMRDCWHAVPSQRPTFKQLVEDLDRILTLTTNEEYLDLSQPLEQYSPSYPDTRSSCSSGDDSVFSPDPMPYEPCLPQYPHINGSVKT
Summary of the method: (§1)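 IC50 values were obtained from variable-slope sigmoidal dose-response fitting of a FRET read-out of peptide phosphorylation. The buffer, described for FGFR3, was 50 mM HEPES pH 7.5 with MgCl2, EGTA, Tween-20 and DTT.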

FGFR1 = FGFR1 (Homo sapiens (Human), UniProt P11362); experiment: FGFR enzymatic assay (FRET peptide phosphorylation), FGFR1; conditions: FGFR1 enzyme 0.02 nM, ATP 210 μM
FGFR1, sequence (P11362 22-822): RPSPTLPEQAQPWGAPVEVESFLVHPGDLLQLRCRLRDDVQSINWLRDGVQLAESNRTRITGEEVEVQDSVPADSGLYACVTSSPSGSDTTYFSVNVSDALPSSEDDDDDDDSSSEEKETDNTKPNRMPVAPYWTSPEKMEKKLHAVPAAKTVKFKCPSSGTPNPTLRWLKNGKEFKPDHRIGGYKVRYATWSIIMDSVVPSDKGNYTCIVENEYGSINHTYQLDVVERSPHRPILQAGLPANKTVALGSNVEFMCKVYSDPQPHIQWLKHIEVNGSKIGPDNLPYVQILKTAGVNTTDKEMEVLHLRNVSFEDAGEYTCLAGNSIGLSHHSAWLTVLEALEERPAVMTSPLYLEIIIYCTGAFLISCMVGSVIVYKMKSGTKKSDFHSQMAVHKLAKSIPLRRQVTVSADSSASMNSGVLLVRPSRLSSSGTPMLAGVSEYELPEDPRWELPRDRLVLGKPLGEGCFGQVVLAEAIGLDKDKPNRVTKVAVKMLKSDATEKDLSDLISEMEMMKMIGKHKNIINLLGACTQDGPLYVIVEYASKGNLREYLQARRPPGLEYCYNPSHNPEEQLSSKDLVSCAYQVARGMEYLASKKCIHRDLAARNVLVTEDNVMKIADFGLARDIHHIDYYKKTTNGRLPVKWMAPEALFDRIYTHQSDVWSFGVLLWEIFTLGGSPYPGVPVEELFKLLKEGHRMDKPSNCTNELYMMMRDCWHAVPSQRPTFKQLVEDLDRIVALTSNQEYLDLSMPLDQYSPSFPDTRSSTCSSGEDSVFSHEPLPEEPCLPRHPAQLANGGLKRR
Summary of the method: as §1

FGFR3, sequence (P22607 23-806): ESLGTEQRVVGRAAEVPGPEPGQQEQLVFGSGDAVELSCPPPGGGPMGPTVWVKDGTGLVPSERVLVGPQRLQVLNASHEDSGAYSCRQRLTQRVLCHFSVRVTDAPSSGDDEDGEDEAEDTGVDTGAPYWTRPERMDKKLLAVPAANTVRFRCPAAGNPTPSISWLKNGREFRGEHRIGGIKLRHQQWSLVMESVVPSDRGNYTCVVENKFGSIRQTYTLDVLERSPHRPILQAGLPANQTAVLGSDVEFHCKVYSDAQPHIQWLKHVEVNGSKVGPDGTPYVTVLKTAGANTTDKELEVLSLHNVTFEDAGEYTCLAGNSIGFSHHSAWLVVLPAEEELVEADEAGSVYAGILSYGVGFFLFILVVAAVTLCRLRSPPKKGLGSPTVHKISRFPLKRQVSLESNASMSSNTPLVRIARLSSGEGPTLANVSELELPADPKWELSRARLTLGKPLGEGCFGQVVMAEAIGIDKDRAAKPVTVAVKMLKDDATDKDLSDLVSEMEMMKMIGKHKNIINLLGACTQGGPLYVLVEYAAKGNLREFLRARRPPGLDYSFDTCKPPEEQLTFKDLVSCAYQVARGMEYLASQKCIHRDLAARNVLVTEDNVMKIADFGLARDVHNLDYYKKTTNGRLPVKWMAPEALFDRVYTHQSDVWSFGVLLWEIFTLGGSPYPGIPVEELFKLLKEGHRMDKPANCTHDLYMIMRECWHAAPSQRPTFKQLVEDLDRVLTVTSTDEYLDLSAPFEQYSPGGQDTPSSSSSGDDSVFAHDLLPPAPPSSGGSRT

| Structure (SMILES) | IC50 (FGFR3) [nM] | IC50 (FGFR2) [nM] | IC50 (FGFR1) [nM] |
| --- | --- | --- | --- |
| COc1cc(OC)c(F)c(N2Cc3cnc4[nH]ccc4c3C(C)(C)C2=O)c1F [Example 67, 7-(2,6-difluoro-3,5-dimethoxyphenyl)-9,9-dimethyl-3,6,7,9-tetrahydro-8H-pyrrolo[2,3-c]-2,7-naphthyridin-8-one] | < 100 | < 100 | < 100 |
| COc1cc(OC)c(Cl)c(N2Cc3cnc4[nH]c(-c5ccnn5C)cc4c3N(C)C2=O)c1 [Example 15, 3-(2-Chloro-3,5-dimethoxyphenyl)-1-methyl-8-(1-methyl-1H-pyrazol-5-yl)-1,3,4,7-tetrahydro-2H-pyrrolo[3′,2′:5,6]pyrido[4,3-d]pyrimidin-2-one] | < 100 | < 100 | < 100 |
| COc1cc(OC)c(F)c(N2Cc3cnc4[nH]c(CN5CCOCC5)cc4c3N(C3CCC3)C2=O)c1F [Example 182, 1-cyclobutyl-3-(2,6-difluoro-3,5-dimethoxyphenyl)-8-(morpholin-4-ylmethyl)-1,3,4,7-tetrahydro-2H-pyrrolo[3′,2′:5,6]pyrido[4,3-d]pyrimidin-2-one] | < 100 | < 100 | < 100 |
| COc1cc(OC)c(F)c(N2Cc3cnc4[nH]ncc4c3N(C[C@@H]3CCOC3)C2=O)c1F [Example 179, 3-(2,6-difluoro-3,5-dimethoxyphenyl)-1-[(3S)-tetrahydrofuran-3-ylmethyl]-1,3,4,7-tetrahydro-2H-pyrazolo[4′,3′:5,6]pyrido[4,3-d]pyrimidin-2-one] | < 100 | < 100 | < 100 |
| COc1cc(OC)c(Cl)c(N2Cc3cnc4[nH]c(-c5cnn(C)c5)cc4c3N(C)C2=O)c1 [Example 13, 3-(2-Chloro-3,5-dimethoxyphenyl)-1-methyl-8-(1-methyl-1H-pyrazol-4-yl)-1,3,4,7-tetrahydro-2H-pyrrolo[3′,2′:5,6]pyrido[4,3-d]pyrimidin-2-one] | < 100 | < 100 | < 100 |
| COc1cc(OC)c(F)c(N2Cc3cnc4[nH]c(CN5CC[C@@H](N(C)C)C5)cc4c3C(C)(C)C2=O)c1F [Example 157, 7-(2,6-difluoro-3,5-dimethoxyphenyl)-2-{[(3R)-3-(dimethylamino)pyrrolidin-1-yl]methyl}-9,9-dimethyl-3,6,7,9-tetrahydro-8H-pyrrolo[2,3-c]-2,7-naphthyridin-8-one] | < 100 | < 100 | < 100 |
| COc1cc(OC)c(F)c(N2Cc3cnc4c(c3N(Cc3cccc(C#N)c3)C2=O)CC(=O)N4)c1F [Example 123, 3-{[3-(2,6-difluoro-3,5-dimethoxyphenyl)-2,8-dioxo-2,3,4,7,8,9-hexahydro-1H-pyrrolo[3′,2′:5,6]pyrido[4,3-d]pyrimidin-1-yl]methyl}benzonitrile] | < 100 | < 100 | < 100 |
| COc1cc(OC)c(F)c(N2Cc3cnc4[nH]ncc4c3N(c3cccc(C(=O)NC(C)C)c3F)C2=O)c1F [Example 199, 3-[3-(2,6-difluoro-3,5-dimethoxyphenyl)-2-oxo-2,3,4,7-tetrahydro-1H-pyrazolo[4′,3′:5,6]pyrido[4,3-d]pyrimidin-1-yl]-2-fluoro-N-isopropylbenzamide] | < 100 | < 100 | < 100 |
| COc1cc(OC)c(F)c(N2Cc3cnc4c(c3N(c3ccc(Cl)cn3)C2=O)CC(=O)N4)c1F [Example 81, 1-(5-chloropyridin-2-yl)-3-(2,6-difluoro-3,5-dimethoxyphenyl)-3,4,7,9-tetrahydro-1H-pyrrolo[3′,2′:5,6]pyrido[4,3-d]pyrimidine-2,8-dione] | < 100 | < 100 | < 100 |
| COc1cc(OC)c(F)c(N2Cc3cnc4c(c3N(CC3CC3)C2=O)CC(=O)N4)c1F [Example 50, 1-(Cyclopropylmethyl)-3-(2,6-difluoro-3,5-dimethoxyphenyl)-3,4,7,9-tetrahydro-1H-pyrrolo[3′,2′:5,6]pyrido[4,3-d]pyrimidine-2,8-dione] | < 100 | < 100 | < 100 |
| COc1cc(OC)c(F)c(N2Cc3cnc4[nH]c(CN5CCN(C)CC5)cc4c3C(C)(C)C2=O)c1F [Example 153, 7-(2,6-difluoro-3,5-dimethoxyphenyl)-9,9-dimethyl-2-[(4-methylpiperazin-1-yl)methyl]-3,6,7,9-tetrahydro-8H-pyrrolo[2,3-c]-2,7-naphthyridin-8-one] | < 100 | < 100 | < 100 |
| COc1cc(OC)c(F)c(N2Cc3cnc4[nH]c(Cn5ccnc5)cc4c3N(C)C2=O)c1F [Example 137, 3-(2,6-difluoro-3,5-dimethoxyphenyl)-8-(1H-imidazol-1-ylmethyl)-1-methyl-1,3,4,7-tetrahydro-2H-pyrrolo[3′,2′:5,6]pyrido[4,3-d]pyrimidin-2-one] | < 100 | < 100 | < 100 |
| COc1cc(OC)c(F)c(N2Cc3cnc4[nH]ncc4c3N(C[C@H]3CCCO3)C2=O)c1F [Example 166, 3-(2,6-Difluoro-3,5-dimethoxyphenyl)-1-[(2R)-tetrahydrofuran-2-ylmethyl]-1,3,4,7-tetrahydro-2H-pyrazolo[4′,3′:5,6]pyrido[4,3-d]pyrimidin-2-one] | < 100 | < 100 | < 100 |
| COc1cc(OC)c(F)c(N2Cc3cnc4[nH]c(CCN5CCOCC5)cc4c3N(c3cccc(F)c3)C2=O)c1F [Example 227, 3-(2,6-difluoro-3,5-dimethoxyphenyl)-1-(3-fluorophenyl)-8-(2-morpholin-4-ylethyl)-1,3,4,7-tetrahydro-2H-pyrrolo[3′,2′:5,6]pyrido[4,3-d]pyrimidin-2-one] | < 100 | < 100 | < 100 |
| COc1cc(OC)c(F)c(N2Cc3cnc4[nH]cnc4c3N(C)C2=O)c1F [Example 61, 7-(2,6-difluoro-3,5-dimethoxyphenyl)-9-methyl-3,6,7,9-tetrahydro-8H-imidazo[4′,5′:5,6]pyrido[4,3-d]pyrimidin-8-one] | < 100 | < 100 | < 100 |
| COc1cc(OC)c(F)c(N2Cc3cnc4[nH]ncc4c3N(CCc3cnccn3)C2=O)c1F [Example 168, 3-(2,6-Difluoro-3,5-dimethoxyphenyl)-1-(2-pyrazin-2-ylethyl)-1,3,4,7-tetrahydro-2H-pyrazolo[4′,3′:5,6]pyrido[4,3-d]pyrimidin-2-one] | < 100 | < 100 | < 100 |

The remaining lines, values ahead:

| IC50 (FGFR3) [nM] | IC50 (FGFR2) [nM] | IC50 (FGFR1) [nM] | Structure (SMILES) |
| --- | --- | --- | --- |
| < 100 | < 100 | < 100 | COc1cc(OC)c(F)c(N2Cc3cnc4[nH]nc(C#N)c4c3N(C)C2=O)c1F [Example 53, 3-(2,6-Difluoro-3,5-dimethoxyphenyl)-1-methyl-2-oxo-2,3,4,7-tetrahydro-1H-pyrazolo[4′,3′:5,6]pyrido[4,3-d]pyrimidine-9-carbonitrile] |
| < 100 | < 100 | < 100 | COc1cc(CN2C(=O)N(c3c(F)c(OC)cc(OC)c3F)Cc3cnc4[nH]c(CN5CCOCC5)cc4c32)ccn1 [Example 202, 3-(2,6-difluoro-3,5-dimethoxyphenyl)-1-[(2-methoxypyridin-4-yl)methyl]-8-(morpholin-4-ylmethyl)-1,3,4,7-tetrahydro-2H-pyrrolo[3′,2′:5,6]pyrido[4,3-d]pyrimidin-2-one] |
| < 100 | < 100 | < 100 | COc1cc(OC)c(F)c(N2Cc3cnc4[nH]c(C(=O)N5C[C@@H](C)N[C@@H](C)C5)cc4c3N(C)C2=O)c1F [Example 120, 3-(2,6-difluoro-3,5-dimethoxyphenyl)-8-{[(3R,5S)-3,5-dimethylpiperazin-1-yl]carbonyl}-1-methyl-1,3,4,7-tetrahydro-2H-pyrrolo[3′,2′:5,6]pyrido[4,3-d]pyrimidin-2-one] |
| < 100 | < 100 | < 100 | COc1cc(OC)c(F)c(N2Cc3cnc4[nH]ncc4c3N(C(C)C)C2=O)c1F [Example 91, 3-(2,6-difluoro-3,5-dimethoxyphenyl)-1-isopropyl-1,3,4,7-tetrahydro-2H-pyrazolo[4′,3′:5,6]pyrido[4,3-d]pyrimidin-2-one] |
| < 100 | < 100 | < 100 | COc1cc(OC)c(F)c(N2Cc3cnc4[nH]c(CN[C@@H]5CCOC5)cc4c3N(C)C2=O)c1F [Example 136, 3-(2,6-difluoro-3,5-dimethoxyphenyl)-1-methyl-8-{[(3R)-tetrahydrofuran-3-ylamino]methyl}-1,3,4,7-tetrahydro-2Hpyrrolo[3′,2′:5,6]pyrido[4,3-d]pyrimidin-2-one] |
| < 100 | < 100 | < 100 | COc1cc(OC)c(F)c(N2Cc3cnc4[nH]c(CCN5CC(F)C5)cc4c3N(C)C2=O)c1F [Example 143, 3-(2,6-difluoro-3,5-dimethoxyphenyl)-8-[2-(3-fluoroazetidin-1-yl)ethyl]-1-methyl-1,3,4,7-tetrahydro-2Hpyrrolo[3′,2′:5,6]pyrido[4,3-d]pyrimidin-2-one] |
| < 100 | < 100 | < 100 | CCNC(=O)c1cccc(N2C(=O)N(c3c(F)c(OC)cc(OC)c3F)Cc3cnc4[nH]ncc4c32)c1F [Example 201, 3-[3-(2,6-difluoro-3,5-dimethoxyphenyl)-2-oxo-2,3,4,7-tetrahydro-1H-pyrazolo[4′,3′:5,6]pyrido[4,3-d]pyrimidin-1-yl]-N-ethyl-2-fluorobenzamide] |
